# Assay results published in patent publication US10391106B2, “19-nor C3, 3-disubstituted C21-C-bound heteroaryl steroids and methods of use thereof” (Sage Therapeutics, Inc., priority 2013, dated 2019).
# Legend:
# [1] = molecular target: GABAA-R (rat brain cortical membranes); assay: Steroid inhibition of [35S]-TBPS binding (radioligand displacement); conditions: in the presence of 5 μM GABA
# Procedure: Steroid Inhibition of TBPS Binding
# [35S]-t-Butylbicyclophosphorothionate (TBPS) binding assays using rat brain cortical membranes in the presence of 5 μM GABA has been described (Gee et al, J. Pharmacol. Exp. Ther. 1987, 241, 346-353; Hawkinson et al, Mol. Pharmacol. 1994, 46, 977-985; Lewin, A. H et al., Mol. Pharmacol. 1989, 35, 189-194).
# Briefly, cortices are rapidly removed following decapitation of carbon dioxide-anesthetized Sprague-Dawley rats (200-250 g). The cortices are homogenized in 10 volumes of ice-cold 0.32 M sucrose using a glass/teflon homogenizer and centrifuged at 1500×g for 10 min at 4° C. The resultant supernatants are centrifuged at 10,000×g for 20 min at 4° C. to obtain the P2 pellets. The P2 pellets are resuspended in 200 mM NaCl/50 mM Na-K phosphate pH 7.4 buffer and centrifuged at 10,000×g for 10 min at 4° C. This washing procedure is repeated twice and the pellets are resuspended in 10 volumes of buffer. Aliquots (100 μL) of the membrane suspensions are incubated with 3 nM [^35S]-TBPS and 5 μL aliquots of test drug dissolved in dimethyl sulfoxide (DMSO) (final 0.5%) in the presence of 5 μM GABA. The incubation is brought to a final volume of 1.0 mL with buffer. […] Following a 90 min incubation at room temp, the assays are terminated by filtration through glass fiber filters (Schleicher and Schuell No. 32) using a cell harvester (Brandel) and rinsed three times with ice-cold buffer. Filter bound radioactivity is measured by liquid scintillation spectrometry. Non-linear curve fitting of the overall data for each drug averaged for each concentration is done using Prism (GraphPad). […] The concentration of test compound producing 50% inhibition (IC50) of specific binding and the maximal extent of inhibition (Imax) are determined for the individual experiments with the same model used for the overall data and then the means ±SEM.s of the individual experiments are calculated.
# Various compounds are or can be screened to determine their potential as modulators of [^35S]-TBPS binding in vitro. These assays are or can be performed in accordance with the above discussed procedures.
# GABAA receptor α1β2γ2 = molecular target: T1, GABAA receptor α1β2γ2 (Homo sapiens, UniProt P14867+P47870); assay: Patch clamp electrophysiology, Qpatch in Ltk cells; format: cell-based; conditions: 10 μM test article, potentiation of GABA EC20 (2 μM) current, read-out: GABA (α1β2γ2) Qpatch in Ltk, % efficacy at 10 μM
# T1 construct: expressed in transfected cells; host or cells: LTK cells (stably transfected)
# T1 sequence (P14867 28-456): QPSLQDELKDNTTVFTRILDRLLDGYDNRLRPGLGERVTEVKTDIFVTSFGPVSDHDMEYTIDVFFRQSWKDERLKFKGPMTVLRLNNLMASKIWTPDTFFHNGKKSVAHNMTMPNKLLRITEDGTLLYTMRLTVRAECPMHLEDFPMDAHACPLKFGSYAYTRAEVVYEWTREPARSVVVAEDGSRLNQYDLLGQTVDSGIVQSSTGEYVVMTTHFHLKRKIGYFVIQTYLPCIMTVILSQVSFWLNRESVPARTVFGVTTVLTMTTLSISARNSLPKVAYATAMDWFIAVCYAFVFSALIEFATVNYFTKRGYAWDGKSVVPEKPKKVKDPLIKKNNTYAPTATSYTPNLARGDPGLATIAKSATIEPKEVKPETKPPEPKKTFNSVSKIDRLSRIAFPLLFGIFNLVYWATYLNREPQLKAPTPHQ
# T1 sequence (P47870 25-512 limits assumed): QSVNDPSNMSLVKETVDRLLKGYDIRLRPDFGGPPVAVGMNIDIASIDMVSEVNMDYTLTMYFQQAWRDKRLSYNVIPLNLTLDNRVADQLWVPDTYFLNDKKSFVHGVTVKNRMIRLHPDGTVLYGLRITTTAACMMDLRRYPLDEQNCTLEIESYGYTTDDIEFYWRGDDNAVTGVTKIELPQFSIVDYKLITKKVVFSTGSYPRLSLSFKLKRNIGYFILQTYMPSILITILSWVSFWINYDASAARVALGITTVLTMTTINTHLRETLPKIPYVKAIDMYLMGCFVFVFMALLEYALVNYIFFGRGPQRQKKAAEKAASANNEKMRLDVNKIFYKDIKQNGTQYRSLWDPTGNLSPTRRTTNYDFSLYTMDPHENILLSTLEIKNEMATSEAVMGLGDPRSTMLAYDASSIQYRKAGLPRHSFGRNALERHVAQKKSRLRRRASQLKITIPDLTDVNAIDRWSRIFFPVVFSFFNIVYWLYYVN
# T1 sequence (P18507 40-475 partner): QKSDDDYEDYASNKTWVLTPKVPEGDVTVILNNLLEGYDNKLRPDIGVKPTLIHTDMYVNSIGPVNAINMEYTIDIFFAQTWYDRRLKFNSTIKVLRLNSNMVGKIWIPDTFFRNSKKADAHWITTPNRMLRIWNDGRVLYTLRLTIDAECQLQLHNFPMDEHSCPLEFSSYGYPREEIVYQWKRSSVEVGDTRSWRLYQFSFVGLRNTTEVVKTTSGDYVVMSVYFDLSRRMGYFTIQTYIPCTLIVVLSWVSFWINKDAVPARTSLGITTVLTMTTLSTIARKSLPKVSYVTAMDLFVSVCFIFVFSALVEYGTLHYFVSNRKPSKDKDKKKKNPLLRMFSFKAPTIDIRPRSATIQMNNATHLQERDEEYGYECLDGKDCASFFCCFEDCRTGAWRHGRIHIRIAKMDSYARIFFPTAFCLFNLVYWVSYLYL
# Procedure: (§1) Patch Clamp Electrophysiology of Recombinant α1β2γ2 and α4β3δ GABAA Receptors
# (§2) Cellular electrophysiology is used to measure the pharmacological properties of our GABAA receptor modulators in heterologous cell systems. Each compound is tested for its ability to affect GABA mediated currents at a submaximal agonist dose (GABA EC20=2 μM). LTK cells are stably transfected with the α1β2γ2 subunits of the GABA receptor and CHO cells are transiently transfected with the α4β3δ subunits via the Lipofecatamine method. Cells were passaged at a confluence of about 50-80% and then seeded onto 35 mm sterile culture dishes containing 2 ml culture complete medium without antibiotics or antimycotics. Confluent clusters of cells are electrically coupled (Pritchett et al, Science, 1988, 242, 1306-1308.). Because responses in distant cells are not adequately voltage clamped and because of uncertainties about the extent of coupling (Verdoorn et al., Neuron 1990, 4, 919-928.), cells were cultivated at a density that enables the recording of single cells (without visible connections to other cells).
# Whole cell currents were measured with HEKA EPC-10 amplifiers using PatchMaster software or by using the high throughput QPatch platform (Sophion). Bath solution for all experiments contained (in mM): NaCl 137 mM, KCl 4 mM, CaCl2 1.8 mM, MgCl2 1 mM, HEPES 10 mM, D-Glucose 10 mM, pH (NaOH) 7.4.. In some cases 0.005% cremophor was also added. Intracellular (pipette) solution contained: KCl 130 mM, MgCl2 1 mM, Mg-ATP 5 mM, HEPES 10 mM, EGTA 5 mM, pH 7.2. During experiments, cells and solutions were maintained at room temperature (19° C.-30° C.). For manual patch clamp recordings, cell culture dishes were placed on the dish holder of the microscope and continuously perfused (1 ml/min) with bath solution. After formation of a Gigaohm seal between the patch electrodes and the cell (pipette resistance range: 2.5 MΩ-6.0 MΩ; seal resistance range:>1 GΩ) the cell membrane across the pipette tip was ruptured to assure electrical access to the cell interior (whole-cell patch-configuration). For experiments using the QPatch system, cells were transferred as suspension to the QPatch system in the bath solution and automated whole cell recordings were performed.
# Cells were voltage clamped at a holding potential of −80 mV. For the analysis of test articles, GABA receptors were stimulated by 2 μM GABA after sequential pre-incubation of increasing concentrations of the test article. Pre-incubation duration was 30 s and the duration of the GABA stimulus was 2 s. Test articles were dissolved in DMSO to form stock solutions (10 mM). Test articles were diluted to 0.01, 0.1, 1, and 10 μM in bath solution. All concentrations of test articles were tested on each cell. The relative percentage potentiation was defined as the peak amplitude in response to GABA EC20 in the presence of the test article divided by the peak amplitude in response to GABA EC20 alone, multiplied by 100.
# GABAA receptor α4β3δ = molecular target: T2, GABAA receptor α4β3δ (Homo sapiens, UniProt P28472+P48169); assay: Patch clamp electrophysiology, manual patch in CHO cells; format: cell-based; conditions: 10 μM test article, potentiation of GABA EC20 (2 μM) current, read-out: GABA (α4β3δ) Manual patch in CHO, % efficacy at 10 μM
# T2 construct: expressed in transfected cells; host or cells: CHO cells (transiently transfected, Lipofectamine)
# T2 sequence (P48169 36-554): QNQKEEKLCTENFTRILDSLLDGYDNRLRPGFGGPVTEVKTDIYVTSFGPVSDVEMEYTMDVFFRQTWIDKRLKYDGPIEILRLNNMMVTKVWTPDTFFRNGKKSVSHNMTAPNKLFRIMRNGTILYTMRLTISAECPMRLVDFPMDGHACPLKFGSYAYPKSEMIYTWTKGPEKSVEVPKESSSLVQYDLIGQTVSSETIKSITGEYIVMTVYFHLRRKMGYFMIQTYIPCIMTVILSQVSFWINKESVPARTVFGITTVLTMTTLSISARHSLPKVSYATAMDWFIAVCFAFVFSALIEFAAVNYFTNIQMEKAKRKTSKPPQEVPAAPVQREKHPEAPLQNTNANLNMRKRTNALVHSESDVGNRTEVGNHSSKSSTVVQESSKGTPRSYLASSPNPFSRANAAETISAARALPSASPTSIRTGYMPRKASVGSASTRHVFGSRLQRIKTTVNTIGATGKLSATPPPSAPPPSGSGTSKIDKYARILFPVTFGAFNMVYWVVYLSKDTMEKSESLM
# T2 sequence (P28472 26-473): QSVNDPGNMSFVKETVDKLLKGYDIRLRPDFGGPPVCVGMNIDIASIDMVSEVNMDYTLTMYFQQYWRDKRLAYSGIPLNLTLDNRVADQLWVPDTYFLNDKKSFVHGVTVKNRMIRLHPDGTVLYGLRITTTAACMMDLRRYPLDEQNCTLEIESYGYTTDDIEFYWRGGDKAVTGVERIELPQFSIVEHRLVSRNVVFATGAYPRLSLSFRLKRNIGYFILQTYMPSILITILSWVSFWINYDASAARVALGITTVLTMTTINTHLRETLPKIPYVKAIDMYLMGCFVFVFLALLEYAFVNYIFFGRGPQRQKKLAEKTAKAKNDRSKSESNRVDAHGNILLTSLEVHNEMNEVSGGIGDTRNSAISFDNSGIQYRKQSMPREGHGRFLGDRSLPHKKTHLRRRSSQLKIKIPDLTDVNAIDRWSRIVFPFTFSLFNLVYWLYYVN
# T2 sequence (O14764 25-452 partner): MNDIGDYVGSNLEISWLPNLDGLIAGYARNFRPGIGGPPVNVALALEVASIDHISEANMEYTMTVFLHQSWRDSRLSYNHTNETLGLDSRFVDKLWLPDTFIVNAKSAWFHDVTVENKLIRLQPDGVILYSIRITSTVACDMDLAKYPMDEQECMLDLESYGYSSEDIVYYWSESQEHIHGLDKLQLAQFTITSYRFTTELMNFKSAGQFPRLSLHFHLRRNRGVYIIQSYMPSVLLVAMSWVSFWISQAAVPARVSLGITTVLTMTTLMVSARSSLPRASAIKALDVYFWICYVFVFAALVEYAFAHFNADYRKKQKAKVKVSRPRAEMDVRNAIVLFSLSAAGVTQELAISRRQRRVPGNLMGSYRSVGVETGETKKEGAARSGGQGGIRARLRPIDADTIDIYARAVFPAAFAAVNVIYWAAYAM
# Procedure: as §1, §2
# Whole cell currents were measured with HEKA EPC-10 amplifiers using PatchMaster software or by using the high throughput QPatch platform (Sophion). Bath solution for all experiments contained (in mM): NaCl 137 mM, KCl 4 mM, CaCl2 1.8 mM, MgCl2 1 mM, HEPES 10 mM, D-Glucose 10 mM, pH (NaOH) 7.4.. […]
Structure (SMILES),IC50 [1],Emax at 10 µM (GABAA receptor α1β2γ2),Emax at 10 µM (GABAA receptor α4β3δ)
C[C@@]1(O)CC[C@H]2[C@H](CC[C@@H]3[C@@H]2CC[C@]2(C)[C@@H](C(=O)Cc4ccccn4)CC[C@@H]32)C1 [SA-2],< 50 nM,100 to 500%,100 to 500%
Cc1nc(CC(=O)[C@H]2CC[C@H]3[C@@H]4CC[C@@H]5C[C@](C)(O)CC[C@@H]5[C@H]4CC[C@]23C)sc1C [SA-8],50 to 100 nM,,
Cc1cccc(CC(=O)[C@H]2CC[C@H]3[C@@H]4CC[C@@H]5C[C@](C)(O)CC[C@@H]5[C@H]4CC[C@]23C)n1 [SA-4],< 50 nM,100 to 500%,
C[C@@]1(O)CC[C@H]2[C@H](CC[C@@H]3[C@@H]2CC[C@]2(C)[C@@H](C(=O)Cc4cccnc4)CC[C@@H]32)C1 [SA-10],< 50 nM,,
Cn1ccnc1CC(=O)[C@H]1CC[C@H]2[C@@H]3CC[C@@H]4C[C@](C)(O)CC[C@@H]4[C@H]3CC[C@]12C [SA-3],100 to 500 nM,100 to 500%,
Cc1nc(CC(=O)[C@H]2CC[C@H]3[C@@H]4CC[C@@H]5C[C@](C)(O)CC[C@@H]5[C@H]4CC[C@]23C)oc1C [SA-1],< 50 nM,> 500%,10 to 100%
C[C@@]1(O)CC[C@H]2[C@H](CC[C@@H]3[C@@H]2CC[C@]2(C)[C@@H](C(=O)Cc4cnccn4)CC[C@@H]32)C1 [SA-9],,100 to 500%,
C[C@@]1(O)CC[C@H]2[C@H](CC[C@@H]3[C@@H]2CC[C@]2(C)[C@@H](C(=O)Cc4ccccc4)CC[C@@H]32)C1 [SA-5],< 50 nM,,
C[C@@]1(O)CC[C@H]2[C@H](CC[C@@H]3[C@@H]2CC[C@]2(C)[C@@H](C(=O)Cc4nccs4)CC[C@@H]32)C1 [SA-7],< 50 nM,> 500%,
